SMILES strings stand for the structures.

Series [1] has as its system Cyperus difformis L. (small-flower flatsedge). The series is described as follows: Postemergence foliar-applied herbicidal activity in direct seeded rice (Example 16). The class given is in vivo. Particulars: post-emergence, 504 h, rice cropping systems, foliar-applied, 8.75 g ae/ha, 21 DAA, may represent multiple trials, read-out: Visual Injury (%) CYPDI. An excerpt:
(§1) Seeds or nutlets of the desired test plant species were planted in a soil matrix prepared by mixing a loam soil (43 percent silt, 19 percent clay, and 38 percent sand, with a pH of about 8.1 and an organic matter content of about 1.5 percent) and river sand in an 80 to 20 ratio. The soil matrix was contained in plastic pots with a surface area of 139.7 cm^2. When required to ensure good germination and healthy plants, a fungicide treatment and/or other chemical or physical treatment was applied. The plants were grown for 10-17 d in a greenhouse with an approximate 14-h photoperiod which was maintained at about 29° C. during the day and 26° C. during the night. Nutrients and water were added on a regular basis and supplemental lighting was provided with overhead metal halide 1000-Watt lamps as necessary. The plants were employed for testing when they reached the second or third true leaf stage.
(§2) Treatments consisted of esters of compounds 1-4, 6-8, 10, 11, 13-16, 20-31, 35, 38, 41 and 42 and A-E. Compound A is methyl 4-amino-3-chloro-6-(4-chloro-3-ethoxy-2-fluorophenyl)-5-fluoropicolinate; compound B is methyl 4-amino-3-chloro-6-(4-cyclopropylphenyl)-5-fluoropicolinate; compound C is methyl 4-amino-3-chloro-6-(2,4-dichloro-3-methoxyphenyl)picolinate; compound D is methyl 6-amino-2-(4-chloro-2-fluoro-3-methoxyphenyl)-5-vinylpyrimidine-4-carboxylate; and compound E is methyl 4-amino-3-chloro-6-(4-chloro-2-fluoro-3-methoxyphenyl)-5-fluoropicolinate. Weighed amounts of technical grade compounds were placed in 25 mL glass vials and dissolved in a volume of 97:3 v/v acetone-DMSO to obtain 12× stock solutions. […] The concentrated stock solutions were added to the spray solutions so that the final acetone and DMSO concentrations were 16.2% and 0.5%, respectively. Spray solutions were diluted to the appropriate final concentrations with the addition of 10 mL of an aqueous mixture of 1.5% (v/v) Agri-dex crop oil concentrate. Generally, multiple concentrations of spray solutions were formulated and tested utilizing the same stock solution. The final spray solutions contained 1.25% (v/v) Agri-dex crop oil concentrate. Compound requirements are based upon a 12 mL application volume at a rate of 187 L/ha. Spray solutions were applied to the plant material with an overhead Mandel track sprayer equipped with 8002E nozzles calibrated to deliver 187 L/ha over an application area of 0.503 square meters (m^2) at a spray height of 18 inches (43 cm) above average plant canopy height. Control plants were sprayed in the same manner with the solvent blank.
(§3) The treated plants and control plants were placed in a greenhouse as described above and watered by sub-irrigation to prevent wash-off of the test compounds. After 3 weeks, the condition of the test plants, compared with that of the untreated plants, was determined visually and scored on a scale of 0 to 100 percent where 0 corresponds to no injury and 100 corresponds to complete kill.
(§4) By applying the well-accepted probit analysis as described by J. Berkson in Journal of the American Statistical […], 48, 565 (1953) and by D. Finney in “Probit Analysis” Cambridge University Press (1952), the data gathered can be used to calculate GR50 and GR80 values, which are defined as growth reduction factors that correspond to the effective dose of herbicide required to kill or control 50 percent or 80 percent, respectively, of a target plant.

Series [2] concerns Scirpus juncoides ROXB. (Japanese bulrush). The series is described as above. The series is classed as in vivo. As to conditions: Schoenoplectiella juncoides, post-emergence, 504 h; rice cropping systems, foliar-applied, 8.75 g ae/ha, 21 DAA; may represent multiple trials; read-out: Visual Injury (%) SCPJU.
Description: as §1, §2, §3, §4

Series [3] relates to Echinochloa crus-galli (L.) P.BEAUV. (barnyardgrass). The experiment in a line: In-water applied herbicidal activity in transplanted paddy rice (Example 17). The series is classed as in vivo. As to conditions: Echinochloa crus-galli, 504 h; rice cropping systems, in-water applied (paddy), 17.5 g ae/ha, 21 DAA; may represent multiple trials; read-out: Visual Injury (%) ECHCG. The procedure: (§5) Weed seeds or nutlets of the desired test plant species were planted in puddled soil (mud) prepared by mixing a non-sterilized mineral soil (28 percent silt, 18 percent clay, and 54 percent sand, with a pH of about 7.3 to 7.8 and an organic matter content of about 1.0 percent) and water at a ratio of 100 kilograms (kg) of soil to 19 liters (L) of water. The prepared mud was dispensed in 250 mL aliquots into 480 mL non-perforated plastic pots with a surface area of 91.6 cm^2 leaving a headspace of 3 cm in each pot. Rice seeds were planted in Sun Gro MetroMix 306 planting mixture, which typically has a pH of 6.0 to 6.8 and an organic matter content of about 30 percent, in plastic plug trays. Seedlings at the second or third leaf stage of growth were transplanted into 650 mL of mud contained in 960 mL non-perforated plastic pots with a surface area of 91.6 cm^2 four days prior to herbicide application. The paddy was created by filling the 3 cm headspace of the pots with water. When required to ensure good germination and healthy plants, a fungicide treatment and/or other chemical or physical treatment was applied. The plants were grown for 4-14 d in a greenhouse with an approximate 14-h photoperiod which was maintained at about 29° C. during the day and 26° C. during the night. Nutrients were added as Osmocote (17:6:10, Nitrogen:Phosphorus:Potassium (N:P:K)+minor nutrients) at 2 grams (g) per cup. Water was added on a regular basis to maintain the paddy flood, and supplemental lighting was provided with overhead metal halide 1000-Watt lamps as necessary. The plants were employed for testing when they reached the second or third true leaf stage.
(§6) Treatments consisted of esters of compounds 1-4, 6-33, 35-39, 41 and 42 and A-G. Compound A is methyl 4-amino-3-chloro-6-(4-chloro-3-ethoxy-2-fluorophenyl)-5-fluoropicolinate; compound B is methyl 4-amino-3-chloro-6-(4-cyclopropylphenyl)-5-fluoropicolinate; compound C is methyl 4-amino-3-chloro-6-(2,4-dichloro-3-methoxyphenyl)picolinate; compound D is methyl 6-amino-2-(4-chloro-2-fluoro-3-methoxyphenyl)-5-vinylpyrimidine-4-carboxylate; compound E is methyl 4-amino-3-chloro-6-(4-chloro-2-fluoro-3-methoxyphenyl)-5-fluoropicolinate; compound F is methyl 6-amino-2-(4-chloro-2-fluoro-3-methoxyphenyl)-5-methoxypyrimidine-4-carboxylate; and compound G is methyl 4-amino-3-chloro-6-(4-chloro-2-fluoro-3-methoxyphenyl)picolinate. Weighed amounts of technical grade compounds were placed in individual 120 mL glass vials and were dissolved in 20 mL of acetone to obtain concentrated stock solutions. […] The concentrated stock solutions obtained were diluted with 20 mL of an aqueous mixture containing 2.5% Agri-dex crop oil concentrate (v/v). The final application solutions contained 1.25% (v/v) Agri-dex crop oil concentrate. Generally, multiple concentrations were tested utilizing the same stock solution. Applications were made by injecting an appropriate amount of the application solution into the aqueous layer of the paddy. Control plants were treated in the same manner with the solvent blank.
(§7) The treated plants and control plants were placed in a greenhouse as described above and water was added as needed to maintain a paddy flood. After 3 weeks the condition of the test plants, compared with that of the untreated plants, was determined visually and scored on a scale of 0 to 100 percent where 0 corresponds to no injury and 100 corresponds to complete kill.
as §4

In series [4] the test system is Scirpus juncoides ROXB. (Japanese bulrush). The description is as above. The series is classed as in vivo. As to conditions: Schoenoplectiella juncoides, 504 h; rice cropping systems, in-water applied (paddy), 17.5 g ae/ha, 21 DAA; may represent multiple trials; read-out: Visual Injury (%) SCPJU. As to the method:
as §5, §6, §7, §4

In turn, `COc1c(Cl)ccc(-c2nc(C(=O)OCc3ccc4ccccc4c3)c(Cl)c(N)c2F)c1F` [Compound 28] had a melting point of 142 to 143 °C. Also, in series [1], the pest or weed control at 8.75 g/ha was 100%. Also, the pest or weed control at 8.75 g/ha in series [2] amounted to 100%. For the same molecule, the pest or weed control at 17.5 g/ha in series [3] turned out to be 10%. Moreover, in series [4], the pest or weed control at 17.5 g/ha turned out to be 50%.

In turn, `COc1c(Cl)ccc(-c2nc(C(=O)OCc3cccc(F)c3)c(Cl)c(N)c2F)c1F` [Compound 23] gave a melting point of 160 to 161 °C. In addition, the pest or weed control at 8.75 g/ha in series [1] was determined as 100%. Also, the pest or weed control at 8.75 g/ha in series [2] was 100%. In addition, the pest or weed control at 17.5 g/ha in series [3] was 60%. For the same molecule, in series [4], the pest or weed control at 17.5 g/ha turned out to be 95%.

As for `COc1c(Cl)ccc(-c2nc(C(=O)OCc3cccc(C)c3)c(Cl)c(N)c2F)c1F` [Compound 11], the melting point came out at 150 °C. Besides, the pest or weed control at 8.75 g/ha in series [1] was 99%. Besides, the pest or weed control at 8.75 g/ha in series [2] was determined as 97%. Moreover, in series [3], the pest or weed control at 17.5 g/ha turned out to be 97%. Also, in series [4], the pest or weed control at 17.5 g/ha amounted to 99%.

The molecule `COc1c(Cl)ccc(-c2nc(C(=O)OCc3ccc(C(C)C)cc3)c(Cl)c(N)c2F)c1F` [Compound 27] returned a melting point of 75 to 76 °C. Further, the pest or weed control at 8.75 g/ha in series [1] was found to be 100%. The pest or weed control at 8.75 g/ha in series [2] was 100%. In addition, in series [3], the pest or weed control at 17.5 g/ha stood at 10%. Besides, the pest or weed control at 17.5 g/ha in series [4] is 80%.

`COc1c(Cl)ccc(-c2nc(C(=O)OCc3ccc(Cl)cc3)c(Cl)c(N)c2F)c1F` [Compound 2, 4-chlorobenzyl 4-amino-3-chloro-6-(4-chloro-2-fluoro-3-methoxyphenyl)-5-fluoropicolinate] had a melting point of 143 °C. The pest or weed control at 8.75 g/ha in series [1] was 100%. Further, the pest or weed control at 8.75 g/ha in series [2] turned out to be 100%. Also, the pest or weed control at 17.5 g/ha in series [3] came to 97%. The pest or weed control at 17.5 g/ha in series [4] is 99%.

`COc1cccc(COC(=O)c2nc(-c3ccc(Cl)c(OC)c3F)c(F)c(N)c2Cl)c1` [Compound 13] had a melting point of 164 to 165 °C. Also, the pest or weed control at 8.75 g/ha in series [1] was 95%. Also, the pest or weed control at 8.75 g/ha in series [2] came to 80%. For the same molecule, in series [3], the pest or weed control at 17.5 g/ha is 98%. In addition, the pest or weed control at 17.5 g/ha in series [4] turned out to be 98%.

In turn, `COC(=O)c1ccc(COC(=O)c2nc(-c3ccc(Cl)c(OC)c3F)c(F)c(N)c2Cl)cc1` [Compound 16] returned a melting point of 182 °C. For the same molecule, the pest or weed control at 8.75 g/ha in series [1] amounted to 94%. Besides, the pest or weed control at 8.75 g/ha in series [2] amounted to 85%. Further, the pest or weed control at 17.5 g/ha in series [3] stood at 90%. Further, the pest or weed control at 17.5 g/ha in series [4] amounted to 99%.

Regarding `COc1c(Cl)ccc(-c2nc(C(=O)OCc3ccccc3F)c(Cl)c(N)c2F)c1F` [Compound 25], the melting point was determined as 169 °C. In series [1], the pest or weed control at 8.75 g/ha was determined as 100%. Further, in series [2], the pest or weed control at 8.75 g/ha came to 100%. Also, the pest or weed control at 17.5 g/ha in series [3] is 10%. Further, in series [4], the pest or weed control at 17.5 g/ha is 90%.

For the molecule `COc1c(Cl)ccc(-c2nc(C(=O)OCc3ccc(SC)cc3)c(Cl)c(N)c2F)c1F` [Compound 31], the melting point turned out to be 145 °C. In series [1], the pest or weed control at 8.75 g/ha turned out to be 100%. Also, the pest or weed control at 8.75 g/ha in series [2] is 100%. Moreover, the pest or weed control at 17.5 g/ha in series [3] stood at 50%. In series [4], the pest or weed control at 17.5 g/ha amounted to 85%.

Consider `COc1c(Cl)ccc(-c2nc(C(=O)OCc3ccccc3C)c(Cl)c(N)c2F)c1F` [Compound 8], for which the melting point was found to be 135 °C. The pest or weed control at 8.75 g/ha in series [1] came out at 99%. Besides, the pest or weed control at 8.75 g/ha in series [2] is 99%. Besides, the pest or weed control at 17.5 g/ha in series [3] is 100%. Further, the pest or weed control at 17.5 g/ha in series [4] stood at 100%.

Take `COc1c(Cl)ccc(-c2nc(C(=O)OCc3ccccc3C(F)(F)F)c(Cl)c(N)c2F)c1F` [Compound 26]: the melting point fell in the range of 133 to 134 °C. The pest or weed control at 8.75 g/ha in series [1] is 100%. The pest or weed control at 8.75 g/ha in series [2] amounted to 100%. In addition, the pest or weed control at 17.5 g/ha in series [3] worked out at 20%. Further, the pest or weed control at 17.5 g/ha in series [4] worked out at 100%.

For `COc1ccccc1COC(=O)c1nc(-c2ccc(Cl)c(OC)c2F)c(F)c(N)c1Cl` [Compound 10], the melting point lay within 135 to 136 °C. Also, the pest or weed control at 8.75 g/ha in series [1] turned out to be 100%. For the same molecule, the pest or weed control at 8.75 g/ha in series [2] was found to be 91%. In addition, the pest or weed control at 17.5 g/ha in series [3] turned out to be 70%. In series [4], the pest or weed control at 17.5 g/ha stood at 100%.

`COc1c(Cl)ccc(-c2nc(C(=O)OCCc3ccc(Cl)cc3)c(Cl)c(N)c2F)c1F` [Compound 22]: the melting point is 107 to 108 °C. Further, in series [1], the pest or weed control at 8.75 g/ha was 100%. For the same molecule, the pest or weed control at 8.75 g/ha in series [2] was found to be 90%. Besides, the pest or weed control at 17.5 g/ha in series [3] is 0%. For the same molecule, the pest or weed control at 17.5 g/ha in series [4] was determined as 40%.

By melting point is commonly meant the temperature, or range, at which the solid turns liquid.

These data come from patent publication US9169217B2, “Arylalkyl esters of 4-amino-6-(substituted phenyl)-picolinates and 6-amino-2-(substituted phenyl)-pyrimidinecarboxylates and their use as selective herbicides for crops” (Dow AgroSciences LLC, priority 2011, dated 2015).
